Legend:
[1] = system: rat embryonic cortical neuron cultures; test: Neurite outgrowth in primary rat embryonic cortical neuron cultures, single test articles (Example 1); type: cell-based; conditions: 3 days treatment, compared to 0.1% sterile water vehicle control
Text: Primary rat cortical neuron experimental methods: Female Wistar rats of 17 days gestation were killed by cervical dislocation and the fetuses (typically 6 to 8 in number) were removed from the uterus. Fetal brains were placed in ice-cold medium of Leibovitz (L15, Gibco, France). Cortex was dissected and meninges were carefully removed. The cortical neurons were dissociated by trypsinization (trypsin-EDTA, Gibco) in the presence of DNAse I (Roche, France). The reaction was stopped by addition of Dulbecco's Modified Eagle Medium (DMEM; Gibco) with 10% of fetal bovine serum (FBS; Gibco). The suspension was triturated with a 10-ml pipette and a 21-gauge needle syringe and centrifuged. The pellet of dissociated cells was resuspended in a medium consisting of Neurobasal (Gibco) supplemented with 2% B27 supplement (Gibco), 0.5 mM L-Glutamine (Gibco), and an antibiotic-antimycotic mixture. Viable cells were counted in a Neubauer cytometer and cells were seeded in 96-well plates (Costar) precoated with poly-L-lysine at 10,000 cells/well.
Stock solutions were prepared in sterile water at 10 mM, and stored at −20° C. until use. Further dilution will be performed in culture in the medium on the day of the treatment. 0.1% Sterile water will be present in all tested conditions. The following conditions were tested: 1) Racemic MDMA (10000, 1000, 100, 10, 1, 0.1, 0.01, 0.001 nM), 2) S(+)-MDMA (10000, 1000, 100, 10, 1, 0.1, 0.01, 0.001 nM), 3) R(−)-MDMA (10000, 1000, 100, 10, 1, 0.1, 0.01, 0.001 nM), 4) Racemic MDA (10000, 1000, 100, 10, 1, 0.1, 0.01, 0.001 nM), 5) S(+)-MDA (10000, 1000, 100, 10, 1, 0.1, 0.01, 0.001 nM), and 6) R(−)-MDA (10000, 1000, 100, 10, 1, 0.1, 0.01, 0.001 nM).
The experimental protocol was performed in 2 independent cultures (i.e., from 2 different pregnant rats). For each culture, each condition was tested in sextuplet (6 wells per condition per culture for a total of 12 wells per condition). […] After three days of plating and compound treatment (Day3), cultures were fixed with paraformaldehyde in phosphate buffered saline at 4° C. (PBS, 4%, Sigma). Then, all subsequent steps were performed at room temperature.
Cells were successively permeabilized for 30 minutes using 0.1% triton, saturated with PBS containing 3% bovine serum albumin (BSA) and incubated for 1 hour with anti-beta III tubulin antibody (T5168, Sigma). Cells were first washed 3 times and then were incubated for 1 hour with goat anti-mouse secondary antibody coupled with Alexa Fluor 488 (AF488, Invitrogen A11001). Finally, nuclei were stained with 4′-6-diamidino-2-phenylindole (DAPI). After rinsing the cells with PBS, the plate was imaged and neurite networks were examined and analyzed using a High-Content Screening platform (CellInsight CX5, Thermo Scientific) with integrated Photometrics high-resolution fluorescent camera, Olympus objective (10×) and HCS Studio Cell Analysis Software.
Approximately 2,000 neurons per well were analyzed using a validated cortex neuron outgrowth algorithm that utilizes parameters optimized for analysis of embryonic rat cortical neuron cultures. The HCS Studio Cell Analysis Software output will include values for neurite number total count, neurite total length (μm) and total number of branch points for each of the 6 wells per culture. The evaluation of neurite outgrowth was performed using the average number of neurites per neuron, the average total neurite length per neuron (μm) and the average number of branch points per neuron across 12 wells. Data also were transformed to percent (%) of the average vehicle control value. Results were expressed as mean (±s.e.m.) of the transformed (% of vehicle control) data. Statistical analyses were performed on transformed percent of the average vehicle control data for each measure for each test article using one-way analysis of variance (Anova, StatView or GraphPad Prism). Where applicable, Dunnett's test was used for multiple pairwise comparisons to the negative control (vehicle) condition. […]

[2] = system: rat embryonic cortical neuron cultures; test: Neurite outgrowth in primary rat embryonic cortical neuron cultures, racemic and non-racemic R(−)/S(+)-MDMA mixtures (Example 2); type: cell-based; conditions: concentrations of R(−)- and S(+)-MDMA as in the label (alone: 10 uM), 3 days treatment, compared to vehicle control, Anova/Dunnett p<0.05
Text: Primary rat cortical neuron experimental methods: Female Wistar rats of 17 days gestation are killed by cervical dislocation and the fetuses (typically 6 to 8 in number) are removed from the uterus. Their brains are placed in ice-cold medium of Leibovitz (L15, Gibco, France). Cortex is dissected and meninges are carefully removed. The cortical neurons are dissociated by trypsinization (trypsin-EDTA, Gibco) in presence of DNAse I (Roche, France). The reaction is stopped by addition of Dulbecco's Modified Eagle Medium (DMEM; Gibco) with 10% of fetal bovine serum (FBS; Gibco). The suspension is triturated with a 10-ml pipette and using a needle syringe 21G and centrifuged. The pellet of dissociated cells is resuspended in a medium consisting of Neurobasal (Gibco) supplemented with 2% B27 supplement (Gibco), 0.5 mM L-Glutamine (Gibco), an antibiotic-antimycotic mixture. Viable cells are counted in a Neubauer cytometer and cells are seeded in 96-well plate (Costar) precoated with poly-L-lysine at 10 000cells/well.
The protocol is performed in either 1 or 2 independent cultures (i.e., from 1 or 2 different pregnant rats). For each culture, each condition is performed in sextuplet (6 wells per condition per culture from 1 rat, or a total of 12 wells per condition when 2 rats/cultures are used).
Cells are treated with the test compounds R(−)-MDMA and S(+)-MDMA as described in the following Tables below.
After three days of plating and test compound treatment (Day3), cultures are fixed with paraformaldehyde in phosphate buffered saline at 4° C. (PBS, 4%, Sigma). Then all steps will be performed at room temperature. Cells are successively permeabilized 30 min using 0.1% triton, saturated with PBS containing 3% bovine serum albumin (BSA) and incubated 1 h with anti-beta III tubulin antibody (T5168, Sigma). Cells are first washed 3 times and are then incubated 1 h with goat anti-mouse secondary antibody coupled with Alexa Fluor 488 (AF488, Invitrogen A11001). Finally, nuclei are stained with 4′-6-diamidino-2-phenylindole (DAPI). After rinsing the cells with PBS, the plate is filmed and neurite networks are examined and analyzed using a High-Content Screening platform (CellInsight CX5, Thermo Scientific) with integrated Photometrics high-resolution fluorescent camera, Olympus objective (10×) and HCS Studio Cell Analysis Software.
Approximately 2000 neurons per well were analyzed using a validated Cortex Neuron Outgrowth algorithm established by Neurofit that utilizes parameters optimized for analysis of embryonic rat cortical neuron cultures. The HCS Studio Cell Analysis Software output will include values for neurite total count number, neurite total length (μm) and total number of branch points for each of the 6 wells per culture. The evaluation of neurite outgrowth was performed using the average number of neurites per neuron, the average of total neurite length per neuron (μm) and the average number of branchpoint per neuron across 6 wells of each culture (6 wells total (1 rat used) or 12 wells total (2 rats used). Data were transformed to % of the average vehicle control value.

[3] = at any tested concentration (0.001-10000 nM)

For `CN[C@@H](C)Cc1ccc2c(c1)OCO2` [S(+)-MDMA], the neurite number [1, 3] was “did not significantly alter”, the “neurite total length (μm)” value [1, 3] was “did not significantly alter” and the “total number of branch points” value [1, 3] was “did not significantly alter”. The “average number of branchpoints per neuron” value [2] was “did not significantly induce”, the “average number of neurites per neuron” value [2] was “did not significantly induce” and the “average total neurite length per neuron” value [2] was “did not significantly induce”.

`C[C@H](N)Cc1ccc2c(c1)OCO2` [S(+)-MDA] was tested, and the neurite number [1, 3] was “did not significantly alter”, the “neurite total length (μm)” value [1, 3] was “did not significantly alter” and the “total number of branch points” value [1, 3] was “did not significantly alter”.

`CNC(C)Cc1ccc2c(c1)OCO2` (racemic) [Racemic R,S(+/−)-MDMA, 3,4-Methylenedioxymethamphetamine] was tested, and the neurite number ([1]; at 10 μM, Anova/Dunnett p<0.05) was “significantly increased”, the “neurite total length (μm)” value ([1]; at 10 μM, Anova/Dunnett p<0.05) was “significantly increased” and the “total number of branch points” value ([1]; at 10 μM, Anova/Dunnett p<0.05) was “significantly increased”.

`CN[C@H](C)Cc1ccc2c(c1)OCO2` [R(−)-MDMA, (R)-3,4-methylenedioxymethamphetamine] was tested, and the neurite number ([1]; at 0.0001 μM) was “significantly increased”, the neurite number ([1]; at 10 μM, Anova/Dunnett p<0.05) was “significantly increased” and the “neurite total length (μm)” value ([1]; at 10 μM, Anova/Dunnett p<0.05) was “significantly increased”. For the same molecule, the “total number of branch points” value ([1]; at 10 μM, Anova/Dunnett p<0.05) was “significantly increased”, the “average number of branchpoints per neuron” value [2] was “did not have significant effects” and the “average number of neurites per neuron” value [2] was “did not have significant effects”. For the same molecule, the “average total neurite length per neuron” value [2] was “significantly induced”.

With `C[C@@H](N)Cc1ccc2c(c1)OCO2` [R(−)-MDA] the neurite number [1, 3] was “did not significantly alter”, the “neurite total length (μm)” value [1, 3] was “did not significantly alter” and the “total number of branch points” value [1, 3] was “did not significantly alter”.

`CC(N)Cc1ccc2c(c1)OCO2` (racemic) [racemic R,S(+/−)-MDA, 3,4-methylenedioxyamphetamine, reference compound] was tested, and the neurite number [1, 3] was “did not significantly alter”, the “neurite total length (μm)” value [1, 3] was “did not significantly alter” and the “total number of branch points” value [1, 3] was “did not significantly alter”.

Source: patent US20230129723A1, “EN[…] OF 3,4-METHYLENEDIOXYMETHAMPHETAMINE AND RELATED METABOLITES AND USES THEREOF” (ATAI Life Sciences AG, priority 2021, published 2023)
